Common to all, as to format: cell-based
One assay deals with Smo. Kind of assay: Gli-luciferase reporter induced by Smo::GFP overexpression (Smo/LightII cells). Particulars: Mus musculus, Shh Light II; 3T3/Smo::GFP Overexpression/Shh-LightII; stimulus none; read-out: IC50, inhibition of expression of Gli-luciferase reporter induced by Smo::GFP overexpression. From the text: NIH/3T3 cells were maintained in DMEM containing 10% (v/v) calf serum, penicillin, streptomycin, and L-glutamine. HEK293, L, cos 7, and suFU−/− mouse embryonic fibroblast cells were maintained in DMEM containing 10% (v/v) fetal bovine serum, penicillin, streptomycin, and L-glutamine. Smo::EGFP, SmoM2::GFP, and Ivs::tagRFPT were cloned into pBabe to generate retroviral particles for infection. Smo::EGFP/Ivs::tagRFPT and SmoM2::GFP/Ivs::tagRFPT stable cell lines were generated through viral infection of NIH/3T3^12. A ShhLightII Gli reporter cell line was obtained from the American Type Culture Collection (ATCC) and used in luciferase reporter assays to measure Hh pathway activity. […]
Hh activity assays were performed using ShhLightll cells, Smo/Lightll cells, SmoM2/Lightll cells, and suFU−/− mouse embryonic fibroblasts. In the suFU−/− cells, Hh activity was measured after co-transfection with Gli driven firefly luciferase and TK-renilla luciferase reporters^41. Wnt activity was measured in 293 cells co-transfected with Top-flash and TK-renilla luciferase reporters^42. Cells were cultured and treated in 96 well assay plates (Corning) and incubated with Duo-Glo luciferase substrates (Promega) to measure firefly and renilla luciferase activity sequentially using a Top Count NX Microplate Scintillation and Luminescence Counter (Perkin Elmer). […]
For orientation: A reporter such as luciferase makes a cellular process visible.

The target of a further assay is Smo::GFP (Homo sapiens, UniProt Q99835). Nature of the assay: Ciliary accumulation of Smo::GFP upon overexpression (3T3/Smo::GFP Overexpression/Ivs::tagRFPT). Particulars: stimulus none, read-out: IC50, inhibiton of ciliary accumulation of Smo::GFP upon overexpression.
Smo::GFP, sequence (Q99835 28-787): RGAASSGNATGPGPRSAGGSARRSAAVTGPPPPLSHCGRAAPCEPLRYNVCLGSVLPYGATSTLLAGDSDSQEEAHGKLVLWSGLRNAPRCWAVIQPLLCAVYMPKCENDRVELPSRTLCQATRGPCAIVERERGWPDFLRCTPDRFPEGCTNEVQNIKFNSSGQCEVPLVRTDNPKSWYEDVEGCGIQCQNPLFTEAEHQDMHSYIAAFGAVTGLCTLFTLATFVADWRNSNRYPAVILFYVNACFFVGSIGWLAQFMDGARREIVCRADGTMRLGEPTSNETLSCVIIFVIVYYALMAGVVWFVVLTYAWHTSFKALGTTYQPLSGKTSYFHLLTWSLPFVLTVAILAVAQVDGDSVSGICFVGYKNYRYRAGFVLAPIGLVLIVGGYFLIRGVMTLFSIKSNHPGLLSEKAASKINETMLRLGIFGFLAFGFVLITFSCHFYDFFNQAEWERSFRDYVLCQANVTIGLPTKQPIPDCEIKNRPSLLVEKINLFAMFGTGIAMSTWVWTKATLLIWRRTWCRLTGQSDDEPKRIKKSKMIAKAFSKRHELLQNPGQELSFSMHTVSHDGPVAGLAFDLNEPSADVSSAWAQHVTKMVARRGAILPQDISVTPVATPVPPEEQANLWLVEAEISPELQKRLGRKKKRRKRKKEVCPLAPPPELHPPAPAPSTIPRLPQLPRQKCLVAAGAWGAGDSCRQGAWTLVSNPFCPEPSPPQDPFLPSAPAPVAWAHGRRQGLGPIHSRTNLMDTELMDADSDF
For another assay, the system named is primary cilium (PC). Kind of assay: Primary cilium markers in the high content assay (Ivs::tagRFPT, Arl13b, acetylated tubulin). As to conditions: Ivs::tagRFPT and other PC markers. From the text:
Acapella 2.0 software (Evotec Technologies/PerkinElmer) was used to perform multi-parametric high content image quantification. Our image analysis script used Ivs::tagREPT to first determine the location of the PC and then Smo::EGFP to quantify the level of Smo present in the cilium.
The inventors used the spot-finding algorithm in the RFP channel to find Ivs-rich spots. Each non-overlapping spot was based on a maximum 8 pixel-radius (when using a 40× objective) around a central intensity peak of 5 pixels. A distance of at least 10 pixels was required between adjacent spot centers. Spot peaks had to exceed thresholds of relative intensity compared to the remaining body of the spot as well as to the entire image. The average, maximum and total RFP intensity of each spot were measured. The spots with sufficiently high absolute maxima to pass the selected threshold were classified as positive spots. To form candidate cilia, the inventors selected the brightest 15% of the pixels in each positive spot and merged those pixels into objects so that the brightest parts of adjacent spots could form single, larger cilia-shaped objects. To qualify the candidate cilia as true Ivs-positive cilia, the width of the objects created from merging the brightest pixels in each spot had to be at least 2 pixels and the length to half-width ratio had to exceed 3. (i.e. a 3-pixel long by 2-pixel wide cilium was the minimum accepted cilium size and the length had to be at least 1.5 fold of the width). The mean GFP intensity within these Ivs-positive cilia was used to estimate the ciliary level of Smo protein. The inventors subtracted the background of the mean GFP intensity in the 3-pixel wide area around each candidate cilium to avoid some false positives. Those Ivs-positive cilia that exceed the final mean GFP intensity threshold set for each experiment were deemed Smo-positive cilia. […]
Cells were cultured and treated in 384-well imaging plate precoated with poly-D-Lysine (Greiner Bio-one), fixed with 4% paraformaldehyde (Electron Microscopy Sciences), and stained with Hoechst (Invitrogen). […] Acapella 2.0 software (Evotec Technologies/PerkinElmer) was used to perform multi-parametric image quantification. All the comparative images were scanned with identical microscopic setting and analyzed with the same input parameters.

This is an account of results in patent publication US20130274233A1, “MODULATORS OF HEDGEHOG SIGNALING PATHWAY” (priority 2012, published 2013).

The structures appear in SMILES notation.

What is called IC50 is the concentration that gives 50% inhibition. In the case of `CCN(CC)c1ccc(/C=N/NC(=O)c2ccc(O)cc2)cc1` [DY131], the IC50 in the assay with Smo is above 30000 nM; on Smo::GFP it was 80 nM.
As for `CC1(C)O[C@@H]2C[C@H]3[C@@H]4C[C@H](F)C5=CC(=O)C=C[C@]5(C)[C@@]4(F)[C@@H](O)C[C@]3(C)[C@]2(C(=O)CO)O1` [FA, fluocinolone acetonide], in the assay with primary cilium (PC), the “effect on primary cilium markers / ciliary structure” value is “unaltered”.
